US20100009352A1, “Method for Modeling a Disease” (priority 2006, published 2010)

Experiments:
PC12-HttQ103 cells = experiment: cellular systems biology model of Huntington's Disease, mutant huntingtin-GFP expression; assay type: cell-based, rat
Protocol: FIG. 10 are example cellular systems biology profiling images for a model of Huntington's Disease (HD). PC12-HttQ103 cells were seeded in 384-well plates +/− NGF (100 ng/ml). At two days post-seeding cells were induced with 200 nM RSL1 +/− NGF (100 ng/ml) for 48 h. Following fixation, cells were stained with Hoechst and with antibodies raised against tubulin and phospho c-Jun. Tubulin was detected with a donkey anti mouse Cy3 conjugated secondary antibody and phospho c-Jun was visualized with a donkey anti rabbit Cy5 conjugated secondary antibody. Images were captured with an HCS instrument and Hoechst-stained nuclei, mutant huntingtin-GFP expression, phospho c-Jun labeled nuclei, and tubulin-stained cells are shown. […]
FIG. 11 is a graph illustrating that mutant huntingtin aggregation correlates with cell loss. […] Images were captured with an HCS instrument and the cell number and % cells with aggregates were determined with standard imaging algorithms. […]
FIG. 14. are graphs illustrating little correlation between aggregate formation and differentiation PC12-Htt-Q103 cells were treated and stained as stated in FIG. 10. Aggregate formation in untreated and NGF-treated populations was measured with standard imaging algorithms. Mean neurite count and mean branch point distance form the cell body was also measured. […]

PC12T cells = experiment: cellular systems biology profile of GFP-Htt aggregate formation with compound treatment; assay type: cell-based
Protocol: To test if there was an interrelationship between the modulation of the microtubule cytoskeleton and the formation of huntingtin protein (Htt) aggregates, cells were induced to produce fluorescently labeled huntingtin protein (GFP-Htt). Soon thereafter, the same Cells were treated with a set of compounds including several microtubule modulators. Cellular systems biology profiling can be used to define the interrelationships between several cellular features including microtubule cytoskeletal stability, cell cycle regulation, GFP-Htt aggregate formation, and nuclear morphology.
In one embodiment, 7.5×10^+6 PC12T cells were plated into T25 tissue culture flasks and panasterone A was added to a final concentration of 5 μM. After an overnight incubation, the cells were trypsinized and replated onto collagen I coated 384-well microplates at a density of 10000 cells per well in medium containing 1 μM panasterone A (24 h after the first panasterone A treatment began). Cells were treated for 26 h with 14 compounds at 12 concentrations each ranging from <1 nM to 50 μM. At the end of the incubation period, cells were fixed with 3.7% formaldehyde, permeabilized with 0.5% Triton X-100 detergent, and labeled with primary-secondary antibody pairs to measure microtubule stability (α-tubulin) and mitotic events (phospho-histone […]). Cells were also labeled with Hoechst 33342 (5 μg/ml) to provide measurements of cell cycle regulation (DNA content), changes in cell number, and multiple nuclear morphology measurements including chromatin condensation and nuclear size and shape.
To build a cellular systems biology profile of the cellular response to GFP-Htt aggregation and compound treatment, the following example cellular systems biology response profile features can be calculated from responses of cell populations either expressing GFP-Htt or not expressing GFP-Htt that can be separated mathematically from each other and analyzed separately.

| Structure (SMILES) | cell number (PC12-HttQ103 cells; 200 nM RSL1, as a function of treatment time) | % cells with aggregates (PC12-HttQ103 cells; 200 nM RSL1 induction) | compound induced modulation of cell cycle regulation (2 n/4 n distribution ratio) (PC12T cells; cells with GFP-Htt aggregates versus cells without aggregates, 26 h treatment) | sensitivity to the microtubule destabilizing activity (PC12T cells; cells with aggregates versus cells without aggregates) | Nocodazole-induced cell cycle regulation and nuclear morphological changes (PC12T cells; in cells containing GFP-Htt aggregates) |
| --- | --- | --- | --- | --- | --- |
| CCc1c(OC)cccc1C(=O)NN(C(=O)c1cc(C)cc(C)c1)C(C)(C)C [RSL1] | decreased | 50% | – | – | – |
| COC(=O)Nc1nc2ccc(C(=O)c3cccs3)cc2[nH]1 [nocodazole] | – | – | less responsive | greater sensitivity | partially inhibited |
